Measurements reported in US4490527A, “Benzo-fused heterocyclic anti-ulcer agents” (American Home Products Corporation, priority 1983, dated 1984).
Structures can show the parent of a compound that is named as a salt. Where two headings read alike, the source gives them in different places. Values belong to the compound of their own block, whether it stands above or below them.

Tests used:
[1] = target: H2 histamine receptors (Cavia porcellus, UniProt P47747); assay: cell-based; set-up: species or system guinea pig; conditions: vs histamine dose-response, 32° C., pH 7.4
H2 histamine receptors, sequence (P47747 whole entry): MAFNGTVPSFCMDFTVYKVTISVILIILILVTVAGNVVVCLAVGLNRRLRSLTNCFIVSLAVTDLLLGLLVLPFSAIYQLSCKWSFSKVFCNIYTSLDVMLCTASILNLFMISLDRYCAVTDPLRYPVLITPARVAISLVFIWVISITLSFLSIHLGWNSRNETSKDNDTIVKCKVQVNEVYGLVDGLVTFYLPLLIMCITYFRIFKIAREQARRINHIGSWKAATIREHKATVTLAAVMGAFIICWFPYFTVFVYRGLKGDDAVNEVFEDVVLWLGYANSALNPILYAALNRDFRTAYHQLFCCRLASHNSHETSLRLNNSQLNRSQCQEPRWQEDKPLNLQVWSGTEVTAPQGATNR
Description: The guinea pig heart atrium test is carried out as follows:
A guinea pig right atrium is suspended at 1 g. tension (isometric) in a thermostatically controlled (32° C.) tissue bath (10 ml) containing oxygenated (95% O2 ; 5% CO2) Krebs-Haenseleit buffer (pH 7.4). The tissue is allowed to stabilize over 1 hour. Individual contractions are recorded with a force-displacement transducer through a strain gauge coupler. A control dose-response curve to histamine in the above described tissue bath is obtained after which the tissue is washed 3 times and allowed to re-equilibrate to basal rate. The test compound is added to the tissue bath at the desired final concentration. Thirty minutes after addition of the compound, a fresh histamine dose response curve is again obtained. Then the response to histamine in the presence of antagonist is compared to the histamine control response. This procedure is repeated, using fresh tissues, for each concentration of antagonist tested. […] Cimetidine is used as the standard for this test.

[2] = tested on: gastric acid secretion; assay: gastric secretion in the rat, modified Shay procedure of pylorus ligation; type: in vivo; conditions: intraduodenal, 4 h, i.d., four hours after ligation, read-out: % Inhibition (of acid output)
Description: The procedure for testing gastric secretion in the rat, a modification of the procedure of Shay et al., Gastroenterology, 26, 906-13 (1954) is carried out as follows: Male Charles River rats weighing 200-300 grams are deprived of food but not water for 24 hours prior to use. Water is, however, withheld during the experiment. The rats are weighed, anesthetized, and the pylorus ligated according to the method of Shay et al. Treatment or vehicle control is then administered interduodenally (i.d.). Rats are housed 2/cage and sacrificed with CO2 four hours after ligation. The stomachs are removed, rinsed, and contents emptied into a graduated centrifuge tube. The tubes are centrifuged for 20 minutes at 2,000 RPM and the volume of gastric juice recorded. Any samples obviously contaminated by feces, food or hemolysis are eliminated. An aliquot of each is frozen for later analysis of Na^+, K^+ and Cl^- concentration. The pH is measured and 1 ml. of gastric juice is titrated with 0.1N NaOH to a pH of 7.0-7.4. Titratable acid output is calculated in microequivalents and the percent inhibition of acid output is calculated as follows: [formula]

[3] = 30 min after addition, results of three experiments, read-out: pA2 Value (apparent dissociation constant of the H2 antagonist) (converted)
[4] = 30 min after addition, results of three experiments
[5] = marked *, result of only one experiment, read-out: KB value

Structure (SMILES): O=S1(=O)N=C(NCCCOc2cccc(CN3CCCCC3)c2)c2ccccc21 [Example 2, N-[3-[3-[(1-piperidinyl)methyl]phenoxy]propyl]-1,2-benzisothiazol-3-amine 1,1-dioxide]
Kb [1, 3]: 7.94 nM

Structure (SMILES): O=C1N=C(NCCCOc2cccc(CN3CCCCC3)c2)c2ccccc21 [Example 4, 3-[[3-[3-[(1-piperidinyl)methyl]phenoxy]propyl]amino]-1H isoindol-1-one, dihydrochloride, quarter hydrate]
Kb [1, 3]: 251 nM

Structure (SMILES): O=[N+]([O-])c1ccc2c(c1)S(=O)(=O)N=C2NCCCOc1cccc(CN2CCCCC2)c1 [Example 5, N-[3-[3-[(1-piperidinyl)methyl]phenoxy]propyl]-6-nitro-1,2-benzisothiazol-3-amine 1,1-dioxide, hydrochloride]
Kb [1, 3]: 50.1 nM

Structure (SMILES): O=S1(=O)N=C(NCCCOc2cccc(CN3CCCCC3)c2)c2ccc(Cl)cc21 [Example 7, N-[3-[3-[(1-piperidinyl)methyl]phenoxy]propyl]-6-chloro-1,2-benzisothiazol-3-amine 1,1-dioxide, hydrochloride salt hemihydrate]
Kb [1, 3]: 31.6 nM

Structure (SMILES): O=S1(=O)N=C(NCCCOc2cccc(CN3CCCCC3)c2)c2ccc(F)cc21 [Example 8, N-[3-[3-[(1-piperidinyl)methyl]phenoxy]propyl]-6-fluoro-1,2-benzisothiazol-3-amine 1,1-dioxide]
Kb [1, 3]: 20 nM

Structure (SMILES): O=S1(=O)N=C(NCCCOc2cccc(CN3CCCCC3)c2)c2cc(Cl)c(Cl)cc21 [Example 9, N-[3-[3-[(1-piperidinyl)methyl]phenoxy]propyl]-5,6-dichloro-1,2-benzisothiazol-3-amine 1,1-dioxide, monohydrochloride salt]
pA2 Value (apparent dissociation constant of the H2 antagonist) [1, 4]: 6.7

Structure (SMILES): COc1ccc2c(c1)C(NCCCOc1cccc(CN3CCCCC3)c1)=NS2(=O)=O [Example 12, N-[3-[3-[(1-piperidinyl)methyl]phenoxy]propyl]-5-methoxy-1,2-benzisothiazol-3-amine 1,1-dioxide, 2/3 oxalate, ethanolate]
pA2 Value (apparent dissociation constant of the H2 antagonist) [1, 4]: 8.0

Structure (SMILES): CCCCN(CCCC)Cc1cccc(OCCCNC2=NS(=O)(=O)c3ccccc32)c1 [Example 22, N-[3-[3-[(dibutylamino)methyl]phenoxy]propyl]-1,2-benzisothiazol-3-amine 1 ,1-dioxide, hydrochloride, hemihydrate]
inhibition in vivo at 4 mg/kg [2]: 42% | inhibition in vivo at 8 mg/kg ([2]; Dose 8 mg/kg): 62% | inhibition in vivo at 16 mg/kg [2]: 53% | inhibition in vivo at 32 mg/kg [2]: 68% | Kb [1, 3]: 6.31 nM

Structure (SMILES): O=S1(=O)N=C(NCCCOc2cccc(CN3CCCCCCC3)c2)c2ccccc21 [Example 26, N-[3-[3-[(octahydro-1(2H)-azocinyl)methyl]phenoxy]-propyl]-1,2-benzisothiazol-3-amine 1,1-dioxide, hydrochloride]
Kb [1, 3]: 20 nM

Structure (SMILES): O=S1(=O)N=C(NCCCOc2cccc(CNC3CCCCC3)c2)c2ccccc21 [Example 27, N-[3-[3-[(cyclohexylamino)methyl]phenoxy]propyl]-1,2-benzisothiazol-3-amine 1,1-dioxide, hydrochloride]
Kb [1, 3]: 44.7 nM

Structure (SMILES): O=S1(=O)N=C(NCCCOc2cccc(CNCc3ccccc3)c2)c2ccccc21 [Example 30, N-[3-[3-[(benzylamino)methyl]phenoxy]propyl]-1,2-benzisothiazol-3-amine1,1-dioxide, hydrochloride, quarter hydrate]
Kb [1, 3]: 63.1 nM

Structure (SMILES): CC(C)CN(Cc1cccc(OCCCNC2=NS(=O)(=O)c3ccccc32)c1)CC(C)C [Example 31, N-[3-[3-[[bis(2-methylpropyl)amino]methyl]phenoxy]-propyl]-1,2-benzisothiazol-3-amine 1,1-dioxide]
Kb [1, 3]: 63.1 nM

Structure (SMILES): CCCCCN(C)Cc1cccc(OCCCNC2=NS(=O)(=O)c3ccccc32)c1 [Example 34, N-[3-[3-[(methylpentylamino)methyl]phenoxy]propyl]-1,2-benzisothiazol-3-amine 1,1-dioxide]
Kb [1, 3]: 10 nM

Structure (SMILES): CCCCN(CCC)Cc1cccc(OCCCNC2=NS(=O)(=O)c3ccccc32)c1 [Example 35, N-[3-[3-[(butylpropylamino)methyl]phenoxy]propyl]-1,2-benzisothiazol-3-amine 1,1-dioxide]
inhibition in vivo at 32 mg/kg [2]: 55% | Kb [1, 5]: 14 nM

Structure (SMILES): CCCCN(C)Cc1cccc(OCCCNC2=NS(=O)(=O)c3ccccc32)c1 [Example 36, N-[3-[3-[(butylmethylamino)methyl]phenoxy]propyl]-1,2-benzisothiazol-3-amine 1,1-dioxide]
inhibition in vivo at 32 mg/kg [2]: 84% | Kb [1, 5]: 48 nM

Structure (SMILES): CCCCCN(CCCCC)Cc1cccc(OCCCNC2=NS(=O)(=O)c3ccccc32)c1 [Example 37, N-[3-[3-[(dipentylamino)methyl]phenoxy]propyl]-1,2-benzisothiazol-3-amine 1,1-dioxide]
inhibition in vivo at 32 mg/kg [2]: 38%

Structure (SMILES): CNC(=NC#N)NCCSCc1csc(N=C(N)N)n1 [tiotidine, reference compound]
inhibition in vivo at 4 mg/kg [2]: 16%

Further lines, with some results ahead:

Kb [1, 3]: 2 nM
Structure (SMILES): NC(N)=Nc1nc(CSCCNC2=NS(=O)(=O)c3ccccc32)cs1 [Example 3, [4-[[[2-[(1,2-benzisothiazol-3yl)amino]ethyl]thio]methyl]-2-thiazolyl]guanidine S',S'-dioxide]

Kb [1, 3]: 20 nM
Structure (SMILES): Nc1ccc2c(c1)S(=O)(=O)N=C2NCCCOc1cccc(CN2CCCCC2)c1 [Example 6, N-[3-[3-[(1-piperidinyl)methyl]phenoxy]propyl]-6-amino-1,2-benzisothiazol-3-amine 1,1-dioxide]

Kb [1, 3]: 50.1 nM
Structure (SMILES): Cc1ccc2c(c1)C(NCCCOc1cccc(CN3CCCCC3)c1)=NS2(=O)=O [Example 10, N-[3-[3-[(1-piperidinyl)methyl]phenoxy]propyl]-5-methyl-1,2-benzisothiazol-3-amine 1,1-dioxide]

Kb [1, 3]: 79.4 nM
Structure (SMILES): O=S1(=O)N=C(NCCCOc2cccc(CN3CCCCC3)c2)c2cc(Cl)ccc21 [Example 11, N-[3-[3-[(1-piperidinyl)methyl]phenoxy]propyl]-5-chloro-1,2-benzisothiazol-3-amine 1,1-dioxide, hydrochloride]

pA2 Value (apparent dissociation constant of the H2 antagonist) [1, 4]: < 7.0
Structure (SMILES): O=S1(=O)N=C(NCCCOc2cccc(CN3CCOCC3)c2)c2ccccc21 [Example 16, N-[3-[3-(4-morpholinylmethyl)phenoxy]propyl]-1,2-benzisothiazol-3-amine 1,1-dioxide, hydrochloride]
inhibition in vivo at 32 mg/kg [2]: 39%

Kb [1, 3]: 200 nM
Structure (SMILES): CCN(CC)Cc1cccc(OCCCNC2=NS(=O)(=O)c3ccccc32)c1 [Example 19, N-[3-[3-[(diethylamino)methyl]phenoxy]propyl]-1,2-benzisothiazol-3-amine 1 ,1-dioxide, hydrochloride]
inhibition in vivo at 16 mg/kg [2]: 52% | inhibition in vivo at 32 mg/kg [2]: 78%

Kb [1, 3]: 79.4 nM
Structure (SMILES): CN(C)Cc1cccc(OCCCNC2=NS(=O)(=O)c3ccccc32)c1 [Example 21, N-[3-[3-[(dimethylamino)methyl]phenoxy]propyl]-1,2-benzisothiazol-3-amine 1,1-dioxide, hydrochloride, hemihydrate]
inhibition in vivo at 32 mg/kg [2]: 72%

Kb [1, 3]: 25.1 nM
Structure (SMILES): O=S1(=O)N=C(NCCCOc2cccc(CN3CCSCC3)c2)c2ccccc21 [Example 23, N-[3-[3-[(4-thiomorpholinyl)methyl]phenoxy]propyl]-1,2-benzisothiazol-3-amine 1,1-dioxide, hydrochloride]

Kb [1, 3]: 40.7 nM
Structure (SMILES): O=S1(=O)N=C(NCCCOc2cccc(CN3CCSC3)c2)c2ccccc21 [Example 25, N-[3-[3-[(3-thiazolidinyl)methyl]phenoxy]propyl]-1,2-benzisothiazol-3-amine 1,1-dioxide, hydrochloride]
inhibition in vivo at 4 mg/kg [2]: 48%

Kb [1, 3]: 25.1 nM
Structure (SMILES): O=S1(=O)N=C(NCCCOc2cccc(CNC3CCCC3)c2)c2ccccc21 [Example 28, N-[3-[3-[(cyclopentylamino)methyl]phenoxy]propyl]-1,2-benzisothiazol-3-amine 1,1-dioxide, hydrochloride]
inhibition in vivo at 16 mg/kg [2]: 75% | inhibition in vivo at 32 mg/kg [2]: 49%

Kb [1, 3]: 69.2 nM
Structure (SMILES): O=S1(=O)N=C(NCCCOc2cccc(CNCc3ccco3)c2)c2ccccc21 [Example 29, N-[3-[3-[[[(2-furanyl)methyl]amino]methyl]phenoxy]-propyl]-1,2-benzisothiazol-3amine 1,1-dioxide, hydrochloride]
inhibition in vivo at 32 mg/kg [2]: 50%

Kb [1, 3]: 63.1 nM
Structure (SMILES): CCCCNCc1cccc(OCCCNC2=NS(=O)(=O)c3ccccc32)c1 [Example 32, N-[3-[3-[(butylamino)methyl]phenoxy]propyl]-1,2-benzisothiazol-3-amine 1,1-dioxide, hydrochloride, hemihydrate]

Kb [1, 5]: 1 nM
Structure (SMILES): CN(C)Cc1ccc(CSCCNC2=NS(=O)(=O)c3cscc32)o1 [Example 39, N-[2-[[[5-[(Dimethylamino)Methyl]-2-Furanyl]Methyl]Thio]Ethyl]Thieno[3,4-d]Isothiazol-3-Amine-1,1-Dioxide]
inhibition in vivo at 16 mg/kg [2]: 87%

Kb [1, 5]: 100 nM
Structure (SMILES): NC(N)=Nc1nc(CSCCNC2=NS(=O)(=O)c3cscc32)cs1 [Example 40, [4-[[[2-[(Thieno[3,4-d]Isothiazol-3-yl)Amino]Ethyl]Thio]Methyl]-2-Thiazolyl]Guanidine-S',S'-Dioxide]
